Measurements from patent publication US12528812B2 (Genentech, Inc., priority 2020, dated 2026).
Read-outs that look alike come from different tables or passages of the source.

Experiments:
[1] = target: T1, recombinant human JAK1 kinase domain protein (Residues 854-1154) (Homo sapiens, UniProt P23458); test: JAK1 biochemical assay (LabChip mobility shift, Ki); details: read-out: Biochem JAK1 Ki
T1 construct: human JAK1 kinase domain protein (Residues 854-1154); purchased Proteros Biostructures GmbH (Martinsried, Germany); host or cells: insect cells
T1 sequence (P23458 854-1154): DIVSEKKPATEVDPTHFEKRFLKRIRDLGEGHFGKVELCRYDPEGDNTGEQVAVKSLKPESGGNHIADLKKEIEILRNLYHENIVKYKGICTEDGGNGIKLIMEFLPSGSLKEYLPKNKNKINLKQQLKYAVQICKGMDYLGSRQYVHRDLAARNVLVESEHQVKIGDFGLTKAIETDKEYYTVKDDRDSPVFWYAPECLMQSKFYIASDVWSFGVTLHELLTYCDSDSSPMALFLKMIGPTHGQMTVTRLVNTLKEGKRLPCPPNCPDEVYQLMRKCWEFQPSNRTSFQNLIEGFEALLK

[2] = tested on: IL-13-stimulated STAT6 phosphorylation in human lung bronchial epithelial BEAS-2B cell line; test: P-STAT6 BEAS-2B + IL-13 cell assay; assay type: cell-based; details: BEAS2B cells, IL13 stimulation, read-out: Cellular JAK1 PSTAT6 BEAS2B + IL13
Description: In order to study the effect of JAK1 inhibitors in a cell line that is relevant to the cell biology of human asthma, an IL-13-stimulated STAT6 phosphorylation assay in the human lung bronchial epithelial BEAS-2B cell line was developed.
BEAS-2B cells (ATCC′ CRL-9609™) were grown in Bronchial Epithelial Growth Medium (BEGM) (Lonza Catalog No. CC-3170; Walkersville, MD; or PromoCell Catalog No. C-21060; Heidelberg, Germany). Test compound stock solutions (0.5 mM in DMSO) were serially diluted 1:2 in DMSO to generate a 10-point concentration curve (at 500× test concentration), which was further diluted by a 50-fold dilution step in BEGM to generate a 10× concentration curve (in 2% DMSO). Cells were plated at 100,000 cells/well in 200 μL of BEGM in 96-well plates and incubated for 48 hours at 37° C. in a humidified incubator. Medium was aspirated from the cells and replaced with 70 μL of fresh BEGM. Diluted test compound (10 μL; or 2% DMSO in assay medium) was added to the cells, and the plates were incubated for 1 hour at 37° C. in a humidified incubator. Twenty μL of 250 ng/mL human recombinant IL-13 (Bio Techne Catalog No. 213-ILB) was then added to the cells and incubated for 15 minutes at 37° C. Medium was aspirated from the cells and 60 μL of ice-cold 1× cell lysis buffer (Cell Signaling Technologies; Catalog No. 9803S) containing 1 mM PMSF was added to the cells. Assay plates were incubated at −80° C. for at least 1 hour. P-STAT6 was measured by coating GAR plates (MSD; Catalog No. L45RA-1) with rabbit anti-human total STAT6 antibody (Cell Signaling Technologies; Catalog No. 9362S), incubating the cell lysates in the coated plates overnight at 4° C., and then detecting with mouse anti-phospho-STAT6 (Tyr641) Clone 16E12 antibody (Millipore; Catalog No. 05-590, custom labeled by MSD with SULFO-tag) using standard MSD plate processing, washing, and detection protocols. Plates were read on the MESO SECTOR 5600.
Data analysis was performed by subtracting negative control values from all wells and determining percent of control using the positive control values; the IC50 was determined with a four-parameter logistic fit model as shown in Equation 4.

[3] = target: Recombinant human JAK2 kinase domain protein (Residues 812-1132) (Homo sapiens, UniProt O60674); test: JAK2 biochemical assay (LabChip mobility shift, Ki)
Chain of Recombinant human JAK2 kinase domain protein (Residues 812-1132) (O60674 812-1132): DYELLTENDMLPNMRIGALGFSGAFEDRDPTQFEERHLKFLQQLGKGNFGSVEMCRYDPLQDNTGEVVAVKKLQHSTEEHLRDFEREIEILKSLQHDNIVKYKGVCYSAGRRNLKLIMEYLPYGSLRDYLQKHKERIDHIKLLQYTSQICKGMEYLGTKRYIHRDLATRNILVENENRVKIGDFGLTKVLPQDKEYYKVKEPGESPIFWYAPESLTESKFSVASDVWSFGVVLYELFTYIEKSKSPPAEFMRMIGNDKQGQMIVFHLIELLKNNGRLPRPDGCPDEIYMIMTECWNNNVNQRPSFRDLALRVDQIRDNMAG

Compound | Ki [1] | Ki ([3]; Biochem JAK2 Ki) | IC50 ([2]; Homo sapiens, BEAS-2B) | IC50 [2] | Ki ([3]; read-out: Biochem JAK2 Ki)
Cc1ccc(Oc2ccc(OC(F)F)c(-c3nn(C[C@@H]4C[C@@H](F)CN4C)cc3NC(=O)c3cnn4cccnc34)c2)cc1C(=O)N(C)C (racemic) [Example 89, N-[3-[2-(difluoromethoxy)-5-[3-(dimethylcarbamoyl)-4-methyl-phenoxy]phenyl]-1-[[rac-(2R,4S)-4-fluoro-l-methyl-pyrrolidin-2-yl]methyl]pyrazol-4-yl]pyrazolo[1,5-a]pyrimidine-3-carboxamide] | 1.2 nM | 1.3 nM | 120 nM |  | 
O=C(Nc1c[nH]nc1-c1cc(Oc2cccc(C3(O)CNC3)c2)ccc1OC(F)F)c1cnn2cccnc12 [Example 137, N-[3-[2-(difluoromethoxy)-5-[3-(3-hydroxyazetidin-3-yl)phenoxy]phenyl]-1H-pyrazol-4-yl]pyrazolo[1,5-a]pyrimidine-3-carboxamide;2,2,2-trifluoroacetic acid] | 0.82 nM |  |  | 1000 nM | 0.51 nM
Cc1ccc(Oc2ccc(OC(F)F)c(-c3nn(CC4CCCN4C)cc3NC(=O)c3cnn4cccnc34)c2)cc1C(=O)N(C)C (racemic) [Example 51, N-[3-[2-(difluoromethoxy)-5-[3-(dimethylcarbamoyl)-4-methyl-phenoxy]phenyl]-1-[[rac-(2R)-1-methylpyrrolidin-2-yl]methyl]pyrazol-4-yl]pyrazolo[1,5-a]pyrimidine-3-carboxamide] | 1.3 nM | 1.8 nM | 45 nM |  | 
Cn1cc(NC(=O)c2cnn3cccnc23)c(-c2cc(Oc3cccc(C4(F)CNC4)c3)ccc2OC(F)F)n1 [Example 70, N-[3-[2-(difluoromethoxy)-5-[3-(3-fluoroazetidin-3-yl)phenoxy]phenyl]-1-methyl-pyrazol-4-yl]pyrazolo[1,5-a]pyrimidine-3-carboxamide] | 0.27 nM | 0.26 nM | 23 nM |  | 
Cn1cc(NC(=O)c2cnn3cccnc23)c(-c2cc(Oc3cnn(CCC4CO4)c3)ccc2OC(F)F)n1 (stereo not drawn) [Example 215, N-[3-[2-(difluoromethoxy)-5-[1-[2-(oxiran-2-yl)ethyl]pyrazol-4-yl]oxy-phenyl]-1-methyl-pyrazol-4-yl]pyrazolo[1,5-a]pyrimidine-3-carboxamide] | 1.9 nM | 1.1 nM |  |  | 
Cn1cc(NC(=O)c2cnn3cccnc23)c(-c2cc(Oc3ccc(CN4CCCC[C@@H]4CO)cc3)ccc2OC(F)F)n1 (racemic) [Example 166, N-[3-[2-(difluoromethoxy)-5-[4-[[rac-(2R)-2-(hydroxymethyl)-1-piperidyl]methyl]phenoxy]phenyl]-1-methyl-pyrazol-4-yl]pyrazolo[1,5-a]pyrimidine-3-carboxamide] | 2.5 nM | 0.99 nM | 32 nM |  | 
Cn1cc(NC(=O)c2cnn3cccnc23)c(-c2cc(Oc3ccc(CN4CCCC4CO)cc3)ccc2OC(F)F)n1 (racemic) [Example 165, N-[3-[2-(difluoromethoxy)-5-[4-[[rac-(2S)-2-(hydroxymethyl)pyrrolidin-1-yl]methyl]phenoxy]phenyl]-1-methyl-pyrazol-4-yl]pyrazolo[1,5-a]pyrimidine-3-carboxamide] | 1.7 nM | 0.56 nM | 31 nM |  | 
Cn1cc(NC(=O)c2cnn3cccnc23)c(-c2cc(Oc3cnn(CCN4CCOCC4)c3)ccc2OC(F)F)n1 [Example 68, N-[3-[2-(difluoromethoxy)-5-[1-(2-morpholinoethyl)pyrazol-4-yl]oxy-phenyl]-1-methyl-pyrazol-4-yl]pyrazolo[1,5-a]pyrimidine-3-carboxamide] | 6.2 nM | 2.9 nM |  |  | 
CCCN(CCCO)Cc1ccc(Oc2ccc(OC(F)F)c(-c3nn(C)cc3NC(=O)c3cnn4cccnc34)c2)cc1 [Example 161, N-(3-(2-(difluoromethoxy)-5-(4-(((3-hydroxypropyl) (propyl)amino)methyl)phenoxy)phenyl)-1-methyl-1H-pyrazol-4-yl)pyrazolo[1,5-a]pyrimidine-3-carboxamide] | 6 nM | 2.2 nM |  |  | 
O=C(Nc1c[nH]nc1-c1cc(Oc2ccccc2)ccc1OC(F)F)c1cnn2cccnc12 [Example 1, N-[3-[2-(difluoromethoxy)-5-phenoxy-phenyl]-1H-pyrazol-4-yl]pyrazolo[1,5-a]pyrimidine-3-carboxamide] | 0.18 nM | 0.096 nM |  |  | 
CNC(=O)c1cncc(Oc2ccc(OC(F)F)c(-c3nn(C)cc3NC(=O)c3cnn4cccnc34)c2)c1 [Example 158, N-[3-[2-(difluoromethoxy)-5-[[5-(methylcarbamoyl)-3-pyridyl]oxy]phenyl]-1-methyl-pyrazol-4-yl]pyrazolo[1,5-a]pyrimidine-3-carboxamide] | 0.62 nM |  | 37 nM |  | 

Continued, in another order:

Ki [1] | Ki ([3]; Biochem JAK2 Ki) | Compound | IC50 ([2]; Homo sapiens, BEAS-2B) | IC50 [2] | Ki ([3]; read-out: Biochem JAK2 Ki)
0.88 nM | 0.58 nM | Cn1cc(NC(=O)c2cnn3cccnc23)c(-c2cc(Oc3cc(C4CC4)cc(C4(O)CNC4)c3)ccc2OC(F)F)n1 [Example 109, N-[3-[5-[3-cyclopropyl-5-(3-hydroxyazetidin-3-yl)phenoxy]-2-(difluoromethoxy)phenyl]-1-methyl-pyrazol-4-yl]pyrazolo[1,5-a]pyrimidine-3-carboxamide] | 250 nM |  | 
0.38 nM | 0.56 nM | CCn1cc(NC(=O)c2cnn3cccnc23)c(-c2cc(Oc3cc(F)cc(C4(O)CNC4)c3)ccc2OC(F)F)n1 [Example 111, N-[3-[2-(difluoromethoxy)-5-[3-fluoro-5-[3-hydroxyazetidin-3-yl)phenoxy]phenyl]-1-ethyl-pyrazol-4-yl]pyrazolo[1,5-a]pyrimidine-3-carboxamide] | 270 nM |  | 
0.94 nM | 0.88 nM | COC1(c2cccc(Oc3ccc(OC(F)F)c(-c4nn(C)cc4NC(=O)c4cnn5cccnc45)c3)c2)CN(C)C1 [Example 71, N-[3-[2-(difluoromethoxy)-5-[3-(3-methoxy-1-methyl-azetidin-3-yl)phenoxy]phenyl]-1-methyl-pyrazol-4-yl]pyrazolo[1,5-a]pyrimidine-3-carboxamide] | 47 nM |  | 
0.19 nM | 0.31 nM | Cn1cc(NC(=O)c2cnn3cccnc23)c(-c2cc(Oc3cc(Cl)cc(C4(O)CNC4)c3)ccc2OC(F)F)n1 [Example 99, N-[3-[5-[3-chloro-5-(3-hydroxyazetidin-3-yl)phenoxy]-2-(difluoromethoxy)phenyl]-1-methyl-pyrazol-4-yl]pyrazolo[1,5-a]pyrimidine-3-carboxamide] | 78 nM |  | 
0.25 nM | 0.21 nM | Cn1cc(NC(=O)c2cnn3cccnc23)c(-c2cc(Oc3cnn(C4CNCC4O)c3)ccc2OC(F)F)n1 (stereo not drawn) [Example 176, N-[3-[2-(difluoromethoxy)-5-[1-(4-hydroxypyrrolidin-3-yl)pyrazol-4-yl]oxy-phenyl]-1-methyl-pyrazol-4-yl]pyrazolo[1,5-a]pyrimidine-3-carboxamide] | 210 nM |  | 
0.26 nM | 0.41 nM | Cn1cc(NC(=O)c2cnn3cccnc23)c(-c2cc(Oc3cccc(C4CNC4)c3)ccc2OC(F)F)n1 [Example 87, N-[3-[5-[3-(azetidin-3-yl)phenoxy]-2-(difluoromethoxy)phenyl]-1-methyl-pyrazol-4-yl]pyrazolo[1,5-a]pyrimidine-3-carboxamide] | 36 nM |  | 
1.1 nM | 0.68 nM | Cn1cc(NC(=O)c2cnn3cccnc23)c(-c2cc(Oc3cnn(CCBr)c3)ccc2OC(F)F)n1 [Example 214, N-[3-[5-[1-(2-bromoethyl)pyrazol-4-yl]oxy-2-(difluoromethoxy)phenyl]-1-methyl-pyrazol-4-yl]pyrazolo[1,5-a]pyrimidine-3-carboxamide] |  |  | 
